Test results published in patent publication US20250129078A1, “ERBB2 INHIBITORS” (Cogent Biosciences, Inc., priority 2023, published 2025).

These molecules were tested against EGFR WT (Homo sapiens (Human), UniProt P00533) (assay: ErbB enzyme assay (CisBio HTRF-KinEASE-TK), EGFR WT). Conditions: ATP at Km (25 μM), 1 h incubation.
EGFR WT, sequence (P00533 25-1210): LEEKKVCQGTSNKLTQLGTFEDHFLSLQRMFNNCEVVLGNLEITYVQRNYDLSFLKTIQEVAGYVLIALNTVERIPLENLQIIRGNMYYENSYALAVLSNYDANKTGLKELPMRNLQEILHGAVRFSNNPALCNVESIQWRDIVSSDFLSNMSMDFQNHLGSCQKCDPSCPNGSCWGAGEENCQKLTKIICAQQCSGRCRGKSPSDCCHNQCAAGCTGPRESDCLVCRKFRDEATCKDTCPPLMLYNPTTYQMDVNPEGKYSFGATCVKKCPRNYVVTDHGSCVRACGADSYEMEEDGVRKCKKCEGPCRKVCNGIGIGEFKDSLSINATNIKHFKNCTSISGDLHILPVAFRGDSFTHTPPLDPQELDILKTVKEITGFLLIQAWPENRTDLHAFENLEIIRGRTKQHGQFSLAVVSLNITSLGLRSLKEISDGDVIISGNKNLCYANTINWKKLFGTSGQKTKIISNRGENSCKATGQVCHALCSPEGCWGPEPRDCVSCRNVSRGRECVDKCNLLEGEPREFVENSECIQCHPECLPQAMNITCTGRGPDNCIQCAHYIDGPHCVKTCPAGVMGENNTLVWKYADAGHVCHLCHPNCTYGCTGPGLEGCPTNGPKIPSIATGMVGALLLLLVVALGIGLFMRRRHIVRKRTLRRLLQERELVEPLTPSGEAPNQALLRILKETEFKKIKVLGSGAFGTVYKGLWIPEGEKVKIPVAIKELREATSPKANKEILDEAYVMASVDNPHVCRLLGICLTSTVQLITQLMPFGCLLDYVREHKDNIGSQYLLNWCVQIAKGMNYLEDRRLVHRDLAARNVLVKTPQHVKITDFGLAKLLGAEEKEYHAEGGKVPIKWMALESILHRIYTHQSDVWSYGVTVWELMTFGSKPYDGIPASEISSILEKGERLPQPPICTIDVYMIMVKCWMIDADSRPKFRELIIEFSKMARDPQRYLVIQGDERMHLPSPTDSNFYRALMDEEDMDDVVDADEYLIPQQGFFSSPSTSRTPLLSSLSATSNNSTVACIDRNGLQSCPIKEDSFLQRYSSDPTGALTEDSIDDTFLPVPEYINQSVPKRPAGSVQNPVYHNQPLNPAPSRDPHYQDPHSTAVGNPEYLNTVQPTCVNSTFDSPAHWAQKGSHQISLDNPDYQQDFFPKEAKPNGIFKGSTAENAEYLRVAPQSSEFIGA
Type: biochemical
Method in brief: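 Potency comes from a homogeneous time-resolved fluorescence kinase format measuring tyrosine substrate phosphorylation. Reactions and detection steps each run 1 h at ambient temperature. IC50 values are interpolated from 4-parameter logistic fits of percent-of-control data.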
In the case of `C=CC(=O)N[C@]1(C)CCCN(c2ncc3ncnc(Nc4ccc(Oc5ccc6c(c5)nnn6C)c(C)c4)c3n2)C1` [Compound 200, (R)-N-(3-methyl-1-(8-((3-methyl-4-((1-methyl-1H-benzo[d][1,2,3]triazol-5-yl)oxy)phenyl)amino)pyrimido[5,4-d]pyrimidin-2-yl)piperidin-3-yl)acrylamide], the IC50 is reported as less than 0.05 µM. With `C=CC(=O)N[C@H]1[C@@H]2C[C@H]1CN(c1ncc3ncnc(Nc4ccc(Oc5ccc6c(c5)nnn6C)c(C)c4)c3n1)C2` [Compound 207, N-((1R,5S,6r)-3-(8-((3-methyl-4-((1-methyl-1H-benzo[d][1,2,3]triazol-5-yl)oxy)phenyl)amino)pyrimido[5,4-d]pyrimidin-2-yl)-3-azabicyclo[3.1.1]heptan-6-yl)acrylamide] the IC50 was 0.1 to 0.5 µM. `C=CC(=O)N[C@@H]1[C@@H]2C[C@H]1CN(c1ncc3ncnc(Nc4ccc(Oc5ccc6c(c5)nnn6C)c(C)c4)c3n1)C2` [Compound 208, N-((1R,5S,6s)-3-(8-((3-methyl-4-((1-methyl-1H-benzo[d][1,2,3]triazol-5-yl)oxy)phenyl)amino)pyrimido[5,4-d]pyrimidin-2-yl)-3-azabicyclo[3.1.1]heptan-6-yl)acrylamide] was tested, and the IC50 was no less than 1 µM. Molecule `C=C(F)C(=O)N1CCN(c2ncc3ncnc(Nc4ccc(Oc5ccc6c(c5)nnn6C)c(C)c4)c3n2)C[C@H]1COC` [Compound 211, (S)-2-fluoro-1-(2-(methoxymethyl)-4-(8-((3-methyl-4-((1-methyl-1H-benzo[d][1,2,3]triazol-5-yl)oxy)phenyl)amino)pyrimido [5,4-d]pyrimidin-2-yl)piperazin-1-yl) prop-2-en-1-one] has an IC50 of no less than 1 µM. `C=C(COC)C(=O)N1C2CC1CN(c1ncc3ncnc(Nc4ccc(Oc5ccc6c(c5)nnn6C)c(C)c4)c3n1)C2` [Compound 213, 2-(methoxymethyl)-1-(3-(8-((3-methyl-4-((1-methyl-1H-benzo[d][1,2,3]triazol-5-yl)oxy)phenyl)amino)pyrimido [5,4-d]pyrimidin-2-yl)-3,6-diazabicyclo[3.1.1]heptan-6-yl)prop-2-en-1-one] gave an IC50 of no less than 1 µM. For `C=C(COC)C(=O)NC1(C)CCN(c2ncc3ncnc(Nc4ccc(Oc5ccc6c(c5)nnn6C)c(C)c4)c3n2)CC1` [Compound 215, 2-(methoxy-methyl)-N-(4-methyl-1-(8-((3-methyl-4-((1-methyl-1H-benzo[d][1,2,3]triazol-5-yl)oxy)phenyl)amino)pyrimido [5,4-d]pyrimidin-2-yl)piperidin-4-yl)acrylamide], the IC50 was no less than 1 µM. Work on `Cc1cc(Nc2ncnc3cnc(N4CCN(C(=O)/C=C/C(F)F)CC4)nc23)ccc1Oc1ccc2c(c1)nnn2C` [Compound 216, 4,4-difluoro-1-(4-(8-((3-methyl-4-((1-methyl-1H-benzo[d][1,2,3]triazol-5-yl)oxy)phenyl)amino)pyrimido [5,4-d]pyrimidin-2-yl)piperazin-1-yl)but-2-en-1-one] yielded an IC50 of 0.05 to 0.1 µM. `Cc1cc(Nc2ncnc3cnc(N4CCN(C(=O)/C=C/C(F)(F)F)CC4)nc23)ccc1Oc1ccc2c(c1)nnn2C` [Compound 217, 4,4,4-trifluoro-1-(4-(8-((3-methyl-4-((1-methyl-1H-benzo[d][1,2,3]triazol-5-yl)oxy)phenyl)amino)pyrimido [5,4-d]pyrimidin-2-yl)piperazin-1-yl) but-2-en-1-one] was tested, and the IC50 was less than 0.05 µM. `C=CC(=O)N1CCN(c2ncc3ncnc(Nc4ccc(Oc5ccc6c(c5)nnn6C)c(Cl)c4F)c3n2)CC1` [Compound 220, 1-(4-(8-((3-chloro-2-fluoro-4-((1-methyl-1H-benzo[d][1,2,3]triazol-5-yl)oxy)phenyl)amino)pyrimido[5,4-d]pyrimidin-2-yl)piperazin-1-yl)prop-2-en-1-one] was tested, and the IC50 was less than 0.05 µM. `C=CC(=O)N1CCCN(c2ncc3ncnc(Nc4ccc(Oc5ccc6c(c5)nnn6C)c(C)c4)c3n2)C[C@H]1C` [Compound 227, (R)-1-(2-methyl-4-(8-((3-methyl-4-((1-methyl-1H-benzo[d][1,2,3]triazol-5-yl)oxy)phenyl)amino)pyrimido[5,4-d]pyrimidin-2-yl)-1,4-diazepan-1-yl)prop-2-en-1-one] showed an IC50 of no less than 1 µM.
